Tests used:
[1] = tested on: HIV sero-positive AIDS patients; assay: Topical DPC skin reaction test (Reactors/Non-Reactors) in a 28-day observational clinical trial; type: in vivo, human; conditions: for # Non-Reactor Patients / # Non-Reactor Patients (%) / # Reactor Patients / # Reactor Patients (%): right forearm
Procedure: (§1) For the examples, HIV sero-positive AIDS patients were tested based on HIV sero-positivity for a 28-day observational clinical trial. 40 subjects completed the study. Topical 0.1 ml applications of 0.4%, 0.2%, 0.1%, 0.05% Diphenylcyclopropenone in a proprietary anhydrous skin penetrating vehicle plus the vehicle placebo were made to the inner aspect of the forearms of patients and covered with a 1 inch adhesive bandage. Skin reactivity scores of a 4-point scaled based on induration and erythema were recorded weekly, as were side effects to the topical treatments.
For the examples, skin reaction scores were assigned using the following scale:
For the examples, patients having a skin reaction score of +2, +3 and +4 were considered to have a positive response and are labeled as “Reactors”; patients having a skin reaction score of 0 and +1 were considered to not have a response and are labeled as “Non-Reactors”.
Skin Reactions Scores as indicators of immune function responses following single applications of 0.4%, 0.2%, 0.1% and 0.05% DPC compositions were used to distinguish between patients with T Cell CD4 blood counts less than 300 per cu/mm and patients with T Cell CD4 counts higher than 300 per cu/mm.

[2] = tested on: HIV sero-positive AIDS patients; assay: Side effects of the topical treatments in the 28-day clinical trial; type: in vivo, human; conditions: 28-day study
Procedure: as §1
Subjects with CD4 counts less than 300 cu/mm were non-skin reactive. This was found in 36 of the 40 subjects. […] Statistical Sensitivity was 87.4% and Specificity was 100% with the 0.4% Topical Diphenylcyclopropenone Solution selected as the optimal dosage concentration. […] None of the subjects withdrew because of side effects.

[3] = 0.05% DPC applied, patients with CD4 <300 cu/mm
[4] = 0.05% DPC applied, patients with CD4 >300 cu/mm
[5] = 0.1% DPC applied, patients with CD4 <300 cu/mm
[6] = 0.1% DPC applied, patients with CD4 >300 cu/mm
[7] = 0.2% DPC applied, patients with CD4 <300 cu/mm
[8] = 0.2% DPC applied, patients with CD4 >300 cu/mm
[9] = 0.4% DPC applied, patients with CD4 <300 cu/mm
[10] = 0.4% DPC applied, patients with CD4 >300 cu/mm
[11] = combined 0.1% + 0.05% DPC dosages, patients with CD4 <300 cu/mm
[12] = combined 00.1% + 0.05% DPC dosages, patients with CD4 >300 cu/mm
[13] = combined 0.4% + 0.2% DPC dosages, patients with CD4 <300 cu/mm
[14] = combined 0.4% + 0.2% DPC dosages, patients with CD4 >300 cu/mm

O=c1c(-c2ccccc2)c1-c1ccccc1 [DPC, Diphenylcyclopropenone]
# Non-Reactor Patients [1, 3]: 2 | # Non-Reactor Patients (%) [1, 3]: 100% | # Reactor Patients [1, 3]: 0 (0%) | # Reactor Patients (%) [1, 3]: 0 (0%) | # Non-Reactor Patients [1, 4]: 8 | # Non-Reactor Patients (%) [1, 4]: 100% | # Reactor Patients [1, 4]: 0 (0%) | # Reactor Patients (%) [1, 4]: 0 (0%) | # Non-Reactor Patients [1, 5]: 2 | # Non-Reactor Patients (%) [1, 5]: 100% | # Reactor Patients [1, 5]: 0 (0%) | # Reactor Patients (%) [1, 5]: 0 (0%) | # Non-Reactor Patients [1, 6]: 4 | # Non-Reactor Patients (%) [1, 6]: 80% | # Reactor Patients [1, 6]: 1 | # Reactor Patients (%) [1, 6]: 20% | # Non-Reactor Patients [1, 7]: 2 | # Non-Reactor Patients (%) [1, 7]: 40% | # Reactor Patients (%) [1, 7]: 60% | # Non-Reactor Patients (%) [1, 8]: 28.6% | # Reactor Patients [1, 8]: 5 | # Reactor Patients (%) [1, 8]: 71.4% | # Non-Reactor Patients (%) [1, 9]: 100% | # Reactor Patients (%) [1, 9]: 0 (0%) | # Non-Reactor Patients ([1]; 0.4% DPC applied, patients with CD4 <300 cu/mm, Non-Reactor = score 0 or +1): 4 | # Non-Reactor Patients (%) [1, 10]: 14.3% | # Reactor Patients [1, 10]: 6 | # Reactor Patients (%) [1, 10]: 85.7% | subjects in whom skin reactivity agreed with CD4 count (>300 cu/mm reactive, <300 cu/mm non-skin reactive) ([1]; all 40 subjects of the study): 36 of the 40 | Non-Reactors [1, 11]: 4 | Non-Reactors (%) [1, 11]: 100% | Reactors [1, 11]: 0 (0%) | Reactors (%) [1, 11]: 0 (0%) | Non-Reactors [1, 12]: 12 | Non-Reactors (%) [1, 12]: 92.3% | Reactors [1, 12]: 1 | Reactors (%) [1, 12]: 7.7% | Non-Reactors [1, 13]: 6 | Non-Reactors (%) [1, 13]: 67% | Reactors [1, 13]: 3 | Reactors (%) [1, 13]: 33% | Non-Reactors [1, 14]: 3 | Non-Reactors (%) [1, 14]: 21.4% | Reactors [1, 14]: 11 | Reactors (%) [1, 14]: 78.6% | subjects who withdrew because of side effects ([2]; 40 subjects): None | Side effects ([2]; topical 0.1 ml applications of 0.05-0.4% DPC): minimal and were limited to adenopathies that were self-limited and disappeared upon completion of the study
